Reference: patent US11261201B2 (priority 2018, dated 2022)
Converted amounts (≈) assume the structure as drawn. Counter-ions that a name gives are not always drawn. Like-named read-outs stand apart in the source and are kept apart here.

Columns and labels:
[1] = test system: E. coli; experiment: Gram negative MIC protocol (OD600, LB, 24 h); conditions: for MIC: Escherichia coli
Experimental: (§1) Overnight bacterial cultures were grown in LB with no added antibiotics at 37° C. with shaking. A 1:1000 dilution of these cultures into LB was exposed to concentration gradients of compounds in 96-well plates (100 μL per well assay volume). Resulting plates were incubated at 37° C. for 24 h without shaking, and OD600 was measured at the end of the incubation. MICs were determined as the lowest concentrations at which OD600 remained at baseline.

[2] = test system: H37RvMA; experiment: Tuberculosis Alamar Blue/Resazurin assay (MIC); assay type: cell-based; conditions: read-out: WT H37Rv MTB Activity
[3] = test system: A. baumannii; experiment: Gram negative MIC protocol (OD600, LB, 24 h); conditions: for MIC: Acinetobacter baumannii
Experimental: as §1

[4] = read-out: MIC E. coli delta-TolC LB Media, E. coli delta-TolC, LB media, OD600
[5] = read-out: MIC WT E. coli LB Media, WT E. coli, LB media, OD600
[6] = Mycobacterium tuberculosis, H37RV, WT H37Rv MTB
[7] = read-out: MIC A. baumannii LB Media, A. baumannii, LB media, 24 h, OD600
[8] = Mycobacterium tuberculosis, H37RV
[9] = read-out: MIC A. baumannii LB Media
[10] = read-out: MIC E. coli delta-TolC LB Media, E. coli delta-TolC strain, LB media, 24 h, OD600
[11] = read-out: MIC WT E. coli LB Media, wild-type E. coli, LB media, 24 h, OD600

Row | Compound | MIC [1, 4] [µM] | MIC [1, 5] [µM] | MIC [2, 6] [µM] | MIC [3, 7] [µM] | other results
1 | CC1=C(C)CC(CC(C)NCc2ccccc2)CC1 (stereo not shown) [B162, N-benzyl-1-(3,4-dimethylcyclohex-3-en-1-yl)propan-2-amine] | 300 (≈ 77.2 µg/mL) | > 500 | > 150 | > 150 | –
2 | C1=C(CC2CCCCN2Cc2ccccc2)CCCC1 (stereo not shown) [B163] | 300 (≈ 80.8 µg/mL) | > 300 | > 150 | > 150 | –
3 | CCC(CC1CCCCC1)NCc1ccccc1 (stereo not shown) [B164, N-benzyl-1-cyclohexylbutan-2-amine] | 60 (≈ 14.7 µg/mL) | > 300 | > 150 | > 150 | –
4 | CCCC(CC1CCCCC1)NCc1ccccc1 (stereo not shown) [B165, N-benzyl-1-cyclohexylpentan-2-amine] | 60 (≈ 15.6 µg/mL) | > 300 | > 150 | > 150 | –
5 | CCC(CC1CCCCC1)NCc1ccccc1F (stereo not shown) [B166, 1-cyclohexyl-N-(2-fluorobenzyl)butan-2-amine hydrochloride] | 250 | > 300 | > 150 | 300 | –
6 | c1ccc(CNC(CC2CCCCC2)C2CC2)cc1 (stereo not shown) [B167, N-benzyl-2-cyclohexyl-1-cyclopropylethanamine] | > 300 | > 300 | > 150 | > 300 | –
7 | OCC(CC1CCCCC1)NCc1ccccc1 (stereo not shown) [B168, 2-(benzylamino)-3-cyclohexylpropan-1-ol] | 182 (≈ 45 µg/mL) | 170 (≈ 42.1 µg/mL) | – | – | MIC [2, 8]: > 150 µM; MIC [3, 9]: 410 µM (≈ 101 µg/mL)
8 | c1ccc(CNC(CC2CCCCC2)c2ccccc2)cc1 (stereo not shown) [B169, N-benzyl-2-cyclohexyl-1-phenylethanamine hydrochloride] | 74 | > 300 | > 150 | > 300 | –
9 | C[C@H](CC1=CCCCC1)NCc1ccccc1 [B170] | > 300 | > 300 | – | – | MIC [2, 8]: > 150 µM; MIC [3, 9]: > 300 µM
10 | C[C@@H](CC1=CCCCC1)NCc1ccccc1 [B171] | 19 (≈ 4.36 µg/mL) | 41 (≈ 9.4 µg/mL) | – | – | MIC [2, 8]: > 150 µM; MIC [3, 9]: 110 µM (≈ 25.2 µg/mL)
11 | OC(CNCc1ccccc1)C1CCCCC1 (stereo not shown) [B172] | 96 (≈ 22.4 µg/mL) | 170 (≈ 39.7 µg/mL) | – | – | MIC [2, 8]: > 150 µM; MIC [3, 9]: > 300 µM
12 | OC[C@@H](Cc1ccccc1)NCc1ccccc1 [B173] | > 300 | > 300 | > 150 | > 300 | –
13 | OC[C@H](Cc1ccccc1)NCc1ccccc1 [B174] | > 300 | > 300 | > 150 | > 300 | –
14 | c1ccc(CNC2CCC2c2ccccc2)cc1 (stereo not shown) [B176] | > 300 | > 300 | > 150 | > 300 | –
15 | FC(F)(F)C(CC1CCCCC1)NCc1ccccc1 (stereo not shown) [B177] | > 300 | > 300 | > 150 | > 300 | –
16 | CC1CCCCC1CCNCc1ccccc1 (stereo not shown) [B178] | > 300 | > 300 | 55 (≈ 12.7 µg/mL) | > 300 | –
17 | CC1CCCC(CCNCc2ccccc2)C1 (stereo not shown) [B179] | 230 (≈ 53.2 µg/mL) | > 300 | 150 (≈ 34.7 µg/mL) | > 300 | –
18 | O=C(O)C(CC1CCCCC1)NCc1ccccc1 (stereo not shown) [B180] | > 300 | > 300 | > 150 | > 300 | –
19 | c1ccc(CCNCc2ccccc2)cc1 [B181] | > 300 | > 300 | – | – | MIC [2, 8]: > 150 µM; MIC [3, 9]: > 300 µM
20 | c1ccc(CNCCC23CCCCC2C3)cc1 (stereo not shown) [B182] | > 300 | > 300 | 91 (≈ 20.9 µg/mL) | > 300 | –
21 | FC1(F)C2CCCCC21CCNCc1ccccc1 (stereo not shown) [B183] | > 300 | > 300 | > 150 | > 300 | –
22 | O=C(O)C1CCCCC1CCNCc1ccccc1 (stereo not shown) [B184] | > 300 | > 300 | > 150 | > 300 | –

Row | Compound | MIC [1, 4] [µM] | MIC [1, 5] [µM] | MIC [2, 6] [µM] | MIC [3, 7] [µM] | other results
23 | COC(=O)C1CCCCC1CCNCc1ccccc1 (stereo not shown) [B185] | > 300 | > 300 | > 150 | > 300 | –
24 | OC1(CCNCc2ccccc2)CCCCC1 [B187] | > 300 | > 300 | > 150 | > 300 | –
25 | OC1(CCNCc2ccccc2)CCCCC1Cl (stereo not shown) [B188] | > 300 | > 300 | > 150 | > 300 | –
26 | OC1CCCCC1CCNCc1ccccc1 (stereo not shown) [B189] | > 300 | > 300 | > 150 | > 300 | –
27 | COC1CCCCC1CCNCc1ccccc1 (stereo not shown) [B190] | > 300 | > 300 | > 150 | > 300 | –
28 | CC(NCc1ccccc1)C1[C@H]2C[C@@H]3C[C@@H](C[C@H]1C3)C2 (stereo partly shown) [B191] | 300 (≈ 80.8 µg/mL) | > 300 | > 150 | 300 (≈ 80.8 µg/mL) | –
29 | c1ccc(CNCCc2cccc3ccccc23)cc1 [B192] | 96 (≈ 25.1 µg/mL) | 300 (≈ 78.4 µg/mL) | 33 (≈ 8.63 µg/mL) | 300 (≈ 78.4 µg/mL) | –
30 | OC(CNCc1ccccc1)c1cccc2ccccc12 (stereo not shown) [B193] | 300 (≈ 83.2 µg/mL) | > 300 | 150 (≈ 41.6 µg/mL) | 300 (≈ 83.2 µg/mL) | –
31 | CC(Cc1ccc2ccccc2c1)NCc1ccccc1 (stereo not shown) [B194] | – | – | – | – | MIC E. coli delta-TolC LB Media ([1]; E. coli delta-TolC, LB media, OD600): 170 µM (≈ 46.8 µg/mL); MIC WT E. coli LB Media ([1]; WT E. coli, LB media, OD600): >300 µM; MIC [2]: 150 µM (≈ 41.3 µg/mL); MIC A. baumannii LB Media ([3]; A. baumannii, LB media, OD600): 300 µM (≈ 82.6 µg/mL)
32 | c1ccc(CNC2CCc3cccc4cccc2c34)cc1 (stereo not shown) [B195] | 300 (≈ 82 µg/mL) | > 300 | > 150 | > 300 | –
33 | C[C@@H](NCc1ccccc1)C12CC3CC(CC(C3)C1)C2 [B196] | 300 (≈ 80.8 µg/mL) | > 300 | 55 (≈ 14.8 µg/mL) | > 300 | –
34 | C[C@H](NCc1ccccc1)C12CC3CC(CC(C3)C1)C2 [B197] | 96 (≈ 25.9 µg/mL) | 170 (≈ 45.8 µg/mL) | > 150 | 300 (≈ 80.8 µg/mL) | –
35 | c1ccc(CNCCC23CC4CC(CC(C4)C2)C3)cc1 [B198] | – | – | – | 170 (≈ 45.8 µg/mL) | MIC [1, 10]: 170 µM (≈ 45.8 µg/mL); MIC [1, 11]: > 300 µM; MIC ([2]; WT H37Rv MTB): 91 µM (≈ 24.5 µg/mL)
36 | COc1ccc2cccc(CCNCc3ccccc3)c2c1 [B199] | – | – | 150 (≈ 43.7 µg/mL) | 170 (≈ 49.5 µg/mL) | MIC [1, 10]: 170 µM (≈ 49.5 µg/mL); MIC [1, 11]: > 300 µM
37 | COc1ccc2ccccc2c1CCNCc1ccccc1 [B200] | – | – | 91 (≈ 26.5 µg/mL) | 300 (≈ 87.4 µg/mL) | MIC [1, 10]: 170 µM (≈ 49.5 µg/mL); MIC [1, 11]: > 300 µM
38 | COc1ccc(CC(C)NCc2ccccc2)c2ccccc12 (stereo not shown) [B201] | – | – | – | 170 (≈ 51.9 µg/mL) | MIC [1, 10]: 96 µM (≈ 29.3 µg/mL); MIC [1, 11]: > 300 µM; MIC [2, 8]: 91 µM (≈ 27.8 µg/mL)
39 | COCC(CC1CCCCC1)NCc1ccccc1 (stereo not shown) [B202, N-benzyl-1-cyclohexyl-3-methoxypropan-2-amine hydrochloride] | – | – | > 150 | > 300 | MIC [1, 10]: > 300 µM; MIC [1, 11]: > 300 µM
40 | COC(=O)C(CC1CCCCC1)NCc1ccccc1 (stereo not shown) [B203, methyl 2-(benzylamino)-3-cyclohexylpropanoate hydrochloride] | – | – | > 150 | > 300 | MIC [1, 10]: 170 µM; MIC [1, 11]: > 300 µM
41 | O=C(O)C(CC1CCCCC1)NCc1ccccc1 (stereo not shown) [B204, 2-(benzylamino)-3-cyclohexylpropanoic acid] | – | – | – | > 300 | MIC [1, 10]: > 300 µM; MIC [1, 11]: > 300 µM; MIC ([2]; WT H37Rv MTB): >150 µM
42 | NC(=O)C(CC1CCCCC1)NCc1ccccc1 (stereo not shown) [B205, 2-(benzylamino)-3-cyclohexylpropanamide hydrochloride] | – | – | > 150 | > 300 | MIC [1, 10]: > 300 µM; MIC [1, 11]: > 300 µM
43 | c1ccc(CNC2Cc3ccccc3C2)cc1 [B206, N-benzyl-2,3-dihydro-1H-inden-2-amine hydrochloride] | – | – | > 150 | > 300 | MIC [1, 10]: > 300 µM; MIC [1, 11]: > 300 µM
